# Measured values as given in patent US11696913B2, “Prolonged ectoparasite-controlling agent for animal” (MITSUI CHEMICALS AGRO, INC., priority 2017, dated 2023).
# Columns and labels:
# [1] = system: Rhipicephalus (Boophilus) microplus; experiment: In vitro injection test with Rhipicephalus (Boophilus) microplus (BOOPMI Inj); conditions: 168 h, laid fertile eggs after 7 days, read-out: acaricidal activity; for pest or weed control at 0.00016 mg: dose 0.16 μg/animal injected; for pest or weed control at 0.0008 mg: dose 0.8 μg/animal injected; for pest or weed control at 32 ng: dose 0.032 μg/animal injected
# Summary of the method: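 Five engorged adult females each get a 1 μl abdominal injection of compound dissolved and diluted in DMSO. Kept 7 days at 28° C./85% rel. hum.; percent activity rates egg laying and egg fertility (0% all fertile, 100% none laid or infertile).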
# Amblyomma americanum = experiment: In vitro contact test with hard ticks (Amblyomma americanum nymphs); conditions: read-out: acaricidal activity; for pest or weed control at 1 µg/cm2, 1 µg/cm2: dose 1 μg/cm^2, 48 h
# Summary of the method: (§1)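 Acaricidal activity = % ticks dead or moribund after 48 h contact with acetone-deposited compound on vial walls (e.g., 900 ppm solution → 5 μg/cm^2). Ambient conditions for R. sanguineus, 21° C./85% rel. hum. for other species; heat challenge at 45-50° C. separated climbers from moribund ticks.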
# Ctenocephalides felis [2] = experiment: Ctenocephalides felis in-vitro feeding test with fleas (CTECFE oral); conditions: 48 hours, read-out: insecticidal feeding activity; for pest or weed control at 0.032 ppm: dose 0.032 ppm in citrated cattle blood; for pest or weed control at 0.16 ppm: dose 0.16 ppm in citrated cattle blood; for pest or weed control at 0.8 ppm: dose 0.8 ppm in citrated cattle blood; for pest or weed control at 4 ppm: dose 4 ppm in citrated cattle blood
# Summary of the method: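 Scored as percent fleas killed (0–100%) 48 hours after feeding began. Compound, dissolved in DMSO and diluted into citrated cattle blood, was offered via a parafilm membrane to roughly 20 adult male and female C. felis at about 37° C.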
# Ctenocephalides felis [3] = experiment: In vitro contact test with fleas; conditions: read-out: insecticidal activity; for pest or weed control at 0.2 µg/cm2, 0.2 µg/cm2: dose 0.2 μg/cm^2, dead or moribund fleas after 48 h; for pest or weed control at 1 µg/cm2, 1 µg/cm2: dose 1 μg/cm^2, dead or moribund fleas after 48 h
# Summary of the method: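 Activity is the percentage of fleas dead or moribund at 48 h, judged by immobility or uncoordinated movement after tapping. Tubes were coated by evaporating acetone solutions (900 ppm gives 5 μg/cm^2), then held 5-10 adult fleas of both sexes at room temperature and ambient humidity.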
# Rhipicephalus sanguineus = experiment: In vitro contact test with adult hard ticks (Rhipicephalus sanguineus); conditions: read-out: acaricidal activity; for pest or weed control at 0.2 µg/cm2, 0.2 µg/cm2: dose 0.2 μg/cm^2, 48 h; for pest or weed control at 1 µg/cm2, 1 µg/cm2: dose 1 μg/cm^2, 48 h
# Summary of the method: as §1
# Spodoptera litura = experiment: Insecticidal testing against common cutworm; format: in vivo; conditions: foliar, 144 h, concentration 100 ppm, cabbage leaf dip, second-stage larvae, after 6 days, read-out: pesticidal rate
# Excerpt: Insecticidal Testing Against Common Cutworm (Spodoptera litura)
# Laodelphax striatellus = experiment: Insecticidal testing against small brown planthopper; format: in vivo; conditions: 144 h, concentration 100 ppm, sprayed rice seedlings, after 6 days, read-out: pesticidal rate
# Description: Insecticidal Testing Against Small Brown Planthopper (Laodelphax striatellus)
# An additional test was carried out with 10 small brown planthoppers by preparing an acetone solution of the testing compound diluted to a predetermined concentration, spraying the solution onto rice seedlings and air drying the rice seedlings. The medicament was all used as received. The rice seedlings were placed in a constant-temperature room at 25° C., and the survival rate was investigated after 6 days. The test was carried out by means of one group of 10 pests.
# Plutella xylostella = experiment: Insecticidal testing against diamondback moth; format: in vivo; conditions: foliar, 144 h, concentration 100 ppm, cabbage leaf dip, third-stage larvae, after 6 days, read-out: pesticidal rate
# Excerpt: Insecticidal Testing Against Diamondback Moth (Plutella xylostella)
# Dermacentor variabilis = experiment: In vitro contact test with adult hard ticks (Dermacentor variabilis); conditions: read-out: acaricidal activity; for pest or weed control at 0.2 µg/cm2, 0.2 µg/cm2: dose 0.2 μg/cm^2, 48 h; for pest or weed control at 1 µg/cm2, 1 µg/cm2: dose 1 μg/cm^2, 48 h
# Summary of the method: as §1
structure (smiles),measurement,setting,value
CN(C(=O)c1ccc(F)cc1)c1cccc(C(=O)Nc2c(I)cc(C(F)(C(F)(F)F)C(F)(F)F)cc2[S+]([O-])C(F)(F)F)c1F (stereo not shown) [Compound 69],pest or weed control at 0.00016 mg,[1],100%
same,pest or weed control at 0.0008 mg,[1],100%
same,"pest or weed control at 0.2 µg/cm2, 0.2 µg/cm2","Amblyomma americanum; dose 0.2 μg/cm^2, 48 h",90%
same,"pest or weed control at 1 µg/cm2, 1 µg/cm2",Amblyomma americanum,90%
same,pest or weed control at 0.032 ppm,Ctenocephalides felis [2],95%
same,pest or weed control at 0.16 ppm,Ctenocephalides felis [2],95%
same,pest or weed control at 0.8 ppm,Ctenocephalides felis [2],95%
same,pest or weed control at 4 ppm,Ctenocephalides felis [2],95%
same,"pest or weed control at 0.2 µg/cm2, 0.2 µg/cm2",Ctenocephalides felis [3],95%
same,"pest or weed control at 1 µg/cm2, 1 µg/cm2",Ctenocephalides felis [3],95%
same,"pest or weed control at 0.2 µg/cm2, 0.2 µg/cm2",Rhipicephalus sanguineus,90%
same,"pest or weed control at 1 µg/cm2, 1 µg/cm2",Rhipicephalus sanguineus,90%
same,pest or weed control at 100 ppm,Spodoptera litura,≥ 70%
same,pest or weed control at 100 ppm,Laodelphax striatellus,≥ 70%
same,pest or weed control at 100 ppm,Plutella xylostella,≥ 70%
CN(C(=O)c1ccc(Cl)c(Cl)c1)c1cccc(C(=O)Nc2c(I)cc(C(F)(C(F)(F)F)C(F)(F)C(F)(F)F)cc2C(F)(F)F)c1F (stereo not shown) [Compound 75],pest or weed control at 0.00016 mg,[1],100%
same,pest or weed control at 0.0008 mg,[1],100%
same,"pest or weed control at 1 µg/cm2, 1 µg/cm2",Amblyomma americanum,90%
same,pest or weed control at 0.8 ppm,Ctenocephalides felis [2],95%
same,pest or weed control at 4 ppm,Ctenocephalides felis [2],95%
same,"pest or weed control at 0.2 µg/cm2, 0.2 µg/cm2",Ctenocephalides felis [3],95%
same,"pest or weed control at 1 µg/cm2, 1 µg/cm2",Ctenocephalides felis [3],95%
same,"pest or weed control at 0.2 µg/cm2, 0.2 µg/cm2",Rhipicephalus sanguineus,90%
same,"pest or weed control at 1 µg/cm2, 1 µg/cm2",Rhipicephalus sanguineus,90%
same,pest or weed control at 100 ppm,Spodoptera litura,≥ 70%
same,pest or weed control at 100 ppm,Laodelphax striatellus,≥ 70%
same,pest or weed control at 100 ppm,Plutella xylostella,≥ 70%
CN(C(=O)c1ccc(C#N)cc1)c1cccc(C(=O)Nc2c(Br)cc(C(F)(C(F)(F)F)C(F)(F)F)cc2OC(F)(F)F)c1F [Compound 88],pest or weed control at 32 ng,[1],100%
same,pest or weed control at 0.00016 mg,[1],100%
same,pest or weed control at 0.0008 mg,[1],100%
same,"pest or weed control at 0.2 µg/cm2, 0.2 µg/cm2",Dermacentor variabilis,90%
same,"pest or weed control at 1 µg/cm2, 1 µg/cm2",Dermacentor variabilis,90%
same,pest or weed control at 0.032 ppm,Ctenocephalides felis [2],95%
same,pest or weed control at 0.16 ppm,Ctenocephalides felis [2],95%
same,pest or weed control at 0.8 ppm,Ctenocephalides felis [2],95%
same,pest or weed control at 4 ppm,Ctenocephalides felis [2],95%
same,"pest or weed control at 0.2 µg/cm2, 0.2 µg/cm2",Ctenocephalides felis [3],95%
same,"pest or weed control at 1 µg/cm2, 1 µg/cm2",Ctenocephalides felis [3],95%
same,"pest or weed control at 0.2 µg/cm2, 0.2 µg/cm2",Rhipicephalus sanguineus,90%
same,"pest or weed control at 1 µg/cm2, 1 µg/cm2",Rhipicephalus sanguineus,90%
same,pest or weed control at 100 ppm,Spodoptera litura,≥ 70%
same,pest or weed control at 100 ppm,Laodelphax striatellus,≥ 70%
same,pest or weed control at 100 ppm,Plutella xylostella,≥ 70%
CN(C(=O)c1ccc(C(F)(F)F)nc1)c1cccc(C(=O)Nc2c(Br)cc(C(F)(C(F)(F)F)C(F)(F)F)cc2OC(F)(F)F)c1F [Compound 98],pest or weed control at 0.00016 mg,[1],100%
same,pest or weed control at 0.0008 mg,[1],100%
same,"pest or weed control at 0.2 µg/cm2, 0.2 µg/cm2",Dermacentor variabilis,90%
same,"pest or weed control at 1 µg/cm2, 1 µg/cm2",Dermacentor variabilis,90%
same,pest or weed control at 0.8 ppm,Ctenocephalides felis [2],95%
same,pest or weed control at 4 ppm,Ctenocephalides felis [2],95%
same,"pest or weed control at 0.2 µg/cm2, 0.2 µg/cm2",Ctenocephalides felis [3],95%
same,"pest or weed control at 1 µg/cm2, 1 µg/cm2",Ctenocephalides felis [3],95%
same,pest or weed control at 100 ppm,Spodoptera litura,≥ 70%
same,pest or weed control at 100 ppm,Laodelphax striatellus,≥ 70%
same,pest or weed control at 100 ppm,Plutella xylostella,≥ 70%
CN(C(=O)c1ccc(C(F)(F)F)nc1)c1cccc(C(=O)Nc2c(I)cc(C(F)(C(F)(F)F)C(F)(F)F)cc2OC(F)F)c1F [Compound 107],pest or weed control at 32 ng,[1],100%
same,pest or weed control at 0.00016 mg,[1],100%
same,pest or weed control at 0.0008 mg,[1],100%
same,"pest or weed control at 0.2 µg/cm2, 0.2 µg/cm2",Dermacentor variabilis,90%
same,"pest or weed control at 1 µg/cm2, 1 µg/cm2",Dermacentor variabilis,90%
same,pest or weed control at 0.032 ppm,Ctenocephalides felis [2],95%
same,pest or weed control at 0.16 ppm,Ctenocephalides felis [2],95%
same,pest or weed control at 0.8 ppm,Ctenocephalides felis [2],95%
same,pest or weed control at 4 ppm,Ctenocephalides felis [2],95%
same,"pest or weed control at 0.04 µg/cm2, 0.04 µg/cm2","Ctenocephalides felis [3]; dose 0.04 μg/cm^2, dead or moribund fleas after 48 h",95%
same,"pest or weed control at 0.2 µg/cm2, 0.2 µg/cm2",Ctenocephalides felis [3],95%
same,"pest or weed control at 1 µg/cm2, 1 µg/cm2",Ctenocephalides felis [3],95%
same,"pest or weed control at 0.2 µg/cm2, 0.2 µg/cm2",Rhipicephalus sanguineus,90%
same,pest or weed control at 100 ppm,Spodoptera litura,≥ 70%
same,pest or weed control at 100 ppm,Laodelphax striatellus,≥ 70%
same,pest or weed control at 100 ppm,Plutella xylostella,≥ 70%
